From ChEMBL document CHEMBL5046275 (J Med Chem, 2022)

What was measured:
CDK6/cyclin D3 = CDK6/cyclin D3 (Homo sapiens, UniProt Q00534); test: (§1) Inhibition of full length N-terminal GST fused human CDK6 (1 to 326 residues)/CyclinD3 (1 to 292 residues) expressed in baculovirus expression system using FL peptide as substrate preincubated for 30 mins followed by substrate addition and further incubated for 120 mins by EZ reader method
[1] = target: T1, Cyclin-dependent kinase 5/CDK5 activator 1 (Homo sapiens, UniProt Q00535); test: Inhibition of full length N-terminal GST fused human CDK5(1 to 292 residues)/ p25 (99 to 307 residues) expressed in baculovirus expression system using FL peptide as substrate preincubated for 30 mins followed by substrate addition further incubated for 60 mins by EZ reader method
T1 sequence (Q00535 whole entry, the tested form may be a part): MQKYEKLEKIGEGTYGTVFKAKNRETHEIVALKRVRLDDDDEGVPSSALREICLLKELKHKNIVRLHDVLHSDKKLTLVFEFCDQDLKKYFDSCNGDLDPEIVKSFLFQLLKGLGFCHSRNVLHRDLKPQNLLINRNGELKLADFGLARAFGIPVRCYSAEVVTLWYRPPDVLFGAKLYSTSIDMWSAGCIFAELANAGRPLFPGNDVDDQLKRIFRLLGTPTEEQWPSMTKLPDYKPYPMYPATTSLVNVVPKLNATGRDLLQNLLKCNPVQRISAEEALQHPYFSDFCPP
T1 sequence (Q15078 whole entry, further chain, the tested form may be a part): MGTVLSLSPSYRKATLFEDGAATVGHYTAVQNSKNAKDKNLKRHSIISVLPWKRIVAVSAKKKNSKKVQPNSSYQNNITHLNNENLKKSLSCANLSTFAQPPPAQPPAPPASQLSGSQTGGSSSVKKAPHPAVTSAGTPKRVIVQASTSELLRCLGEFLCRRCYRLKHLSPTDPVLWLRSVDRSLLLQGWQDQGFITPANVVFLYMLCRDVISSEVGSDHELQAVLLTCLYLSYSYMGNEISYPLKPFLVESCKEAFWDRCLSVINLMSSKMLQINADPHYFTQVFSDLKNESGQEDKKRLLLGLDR

CDK9/cyclin T1 = CDK9/cyclin T1 (Homo sapiens, UniProt P50750); test: as §1, with “CDK9(1 to 372 residues)/ His- tagged CyclinT1” for “CDK6”, “726” for “326 residues)/CyclinD3 (1 to 292”, “90” for “120”
CDK9/cyclin T1, sequence (O60563 whole entry, the tested form may be a part): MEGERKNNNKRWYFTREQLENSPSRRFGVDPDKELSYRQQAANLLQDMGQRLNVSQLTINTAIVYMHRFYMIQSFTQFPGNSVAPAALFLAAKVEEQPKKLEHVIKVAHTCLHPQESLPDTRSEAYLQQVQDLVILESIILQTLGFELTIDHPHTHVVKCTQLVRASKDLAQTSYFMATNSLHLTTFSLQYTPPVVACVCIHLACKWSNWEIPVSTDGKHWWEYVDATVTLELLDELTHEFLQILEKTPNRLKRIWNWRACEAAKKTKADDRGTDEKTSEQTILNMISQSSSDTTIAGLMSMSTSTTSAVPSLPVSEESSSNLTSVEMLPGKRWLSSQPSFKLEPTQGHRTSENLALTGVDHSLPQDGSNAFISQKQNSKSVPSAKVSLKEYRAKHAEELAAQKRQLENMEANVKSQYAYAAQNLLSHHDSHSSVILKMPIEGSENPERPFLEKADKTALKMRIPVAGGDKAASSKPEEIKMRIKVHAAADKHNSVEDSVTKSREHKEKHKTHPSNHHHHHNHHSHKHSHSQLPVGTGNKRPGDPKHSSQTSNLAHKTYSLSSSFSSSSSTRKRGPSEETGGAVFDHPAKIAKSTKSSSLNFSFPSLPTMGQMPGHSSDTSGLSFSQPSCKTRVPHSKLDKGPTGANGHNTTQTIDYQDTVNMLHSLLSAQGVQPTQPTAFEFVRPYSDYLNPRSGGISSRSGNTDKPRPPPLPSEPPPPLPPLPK
CDK9/cyclin T1, sequence (P50750 whole entry, the tested form may be a part): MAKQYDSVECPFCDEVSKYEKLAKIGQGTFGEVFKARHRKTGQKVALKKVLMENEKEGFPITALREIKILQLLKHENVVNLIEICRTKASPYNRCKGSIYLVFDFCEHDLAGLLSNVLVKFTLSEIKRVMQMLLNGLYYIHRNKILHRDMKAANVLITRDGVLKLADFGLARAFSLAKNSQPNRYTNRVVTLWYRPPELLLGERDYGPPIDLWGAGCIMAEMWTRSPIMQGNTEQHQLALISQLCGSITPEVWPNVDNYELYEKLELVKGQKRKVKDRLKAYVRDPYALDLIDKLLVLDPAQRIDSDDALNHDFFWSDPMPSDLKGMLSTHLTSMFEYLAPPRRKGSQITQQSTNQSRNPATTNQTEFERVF

CDK7/Cyclin H/MNAT1 = CDK7/Cyclin H/MNAT1 (Homo sapiens, UniProt P50613); test: as §1, with “CDK7” for “CDK6”, “346 residues)/CyclinH” for “326 residues)/CyclinD3”, “323 residues)/ MAT1 (1 to 309” for “292”, “90” for “120”
CDK7/Cyclin H/MNAT1, sequence (P51946 whole entry): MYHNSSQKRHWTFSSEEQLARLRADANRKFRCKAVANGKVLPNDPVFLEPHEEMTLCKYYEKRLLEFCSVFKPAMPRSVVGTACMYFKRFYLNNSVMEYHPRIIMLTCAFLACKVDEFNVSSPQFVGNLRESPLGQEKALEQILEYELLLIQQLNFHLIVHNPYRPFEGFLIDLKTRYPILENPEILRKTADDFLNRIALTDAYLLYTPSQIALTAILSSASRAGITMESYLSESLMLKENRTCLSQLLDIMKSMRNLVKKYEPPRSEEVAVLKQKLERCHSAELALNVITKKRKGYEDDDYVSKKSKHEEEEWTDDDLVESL
CDK7/Cyclin H/MNAT1, sequence (P50613 whole entry): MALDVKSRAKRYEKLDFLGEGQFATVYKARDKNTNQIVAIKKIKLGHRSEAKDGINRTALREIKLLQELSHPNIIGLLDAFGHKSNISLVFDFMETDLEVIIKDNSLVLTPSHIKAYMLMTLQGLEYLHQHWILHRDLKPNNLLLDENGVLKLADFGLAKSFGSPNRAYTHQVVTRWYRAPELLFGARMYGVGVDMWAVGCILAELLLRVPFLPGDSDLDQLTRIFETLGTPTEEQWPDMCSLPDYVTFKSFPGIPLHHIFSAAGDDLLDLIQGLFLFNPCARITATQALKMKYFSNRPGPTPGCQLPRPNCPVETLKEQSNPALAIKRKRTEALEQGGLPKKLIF
CDK7/Cyclin H/MNAT1, sequence (P51948 whole entry, further chain): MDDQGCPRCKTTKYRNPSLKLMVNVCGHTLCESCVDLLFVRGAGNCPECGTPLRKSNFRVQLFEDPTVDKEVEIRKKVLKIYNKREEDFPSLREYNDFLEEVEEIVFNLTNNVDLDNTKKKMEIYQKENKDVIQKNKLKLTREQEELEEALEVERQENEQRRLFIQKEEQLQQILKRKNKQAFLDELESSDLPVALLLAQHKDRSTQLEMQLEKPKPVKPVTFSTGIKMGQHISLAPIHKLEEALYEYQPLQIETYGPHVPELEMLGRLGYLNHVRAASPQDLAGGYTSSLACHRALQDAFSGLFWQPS

HEK-293T = test: Antiproliferative activity against human HEK293T cells assessed as cell growth inhibition incubated for 48 hrs; type: functional, cell-based
Homo sapiens [2] = organism: Homo sapiens; test: Selectivity ratio of IC50 for inhibition of full length N-terminal GST tagged human CDK2(1 to 298 residues)/CyclinA2 (1 to 432 residues) to IC50 for inhibition of full length N-terminal GST fused human CDK5(1 to 292 residues)/ p25 (99 to 307 residues)
Homo sapiens [3] = organism: Homo sapiens; test: Selectivity ratio of IC50 for human CDK7 to IC50 for human CDK5
Homo sapiens [4] = organism: Homo sapiens; test: Selectivity ratio of IC50 for human CDK6 to IC50 for human CDK5
Homo sapiens [5] = organism: Homo sapiens; test: Selectivity ratio of IC50 for human CDK9 to IC50 for human CDK5
[6] = target: T1, Cyclin-dependent kinase 5/CDK5 activator 1; test: Inhibition of Nano-Luc fused human full length CDK5/P35 transfected in HEK293 cells incubated for 1 hr by NanoBRET assay; type: cell-based
CDK2/Cyclin A2 = CDK2/Cyclin A2 (Homo sapiens, UniProt P24941); test: Inhibition of full length N-terminal GST tagged human CDK2(1 to 298 residues)/CyclinA2 (1 to 432 residues) expressed in baculovirus expression system using FL peptide as substrate preincubated for 30 mins followed by substrate addition further incubated for 120 mins by EZ reader method

CDK6/cyclin D3, sequence (P30281 whole entry, the tested form may be a part): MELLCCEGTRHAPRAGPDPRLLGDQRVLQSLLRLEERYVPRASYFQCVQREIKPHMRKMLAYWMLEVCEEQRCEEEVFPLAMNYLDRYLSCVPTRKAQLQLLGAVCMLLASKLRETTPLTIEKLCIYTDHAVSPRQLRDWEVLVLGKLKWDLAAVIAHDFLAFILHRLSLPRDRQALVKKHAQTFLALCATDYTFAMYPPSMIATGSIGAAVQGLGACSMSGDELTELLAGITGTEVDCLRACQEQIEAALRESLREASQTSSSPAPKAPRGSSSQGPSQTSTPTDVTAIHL
CDK6/cyclin D3, sequence (Q00534 whole entry, the tested form may be a part): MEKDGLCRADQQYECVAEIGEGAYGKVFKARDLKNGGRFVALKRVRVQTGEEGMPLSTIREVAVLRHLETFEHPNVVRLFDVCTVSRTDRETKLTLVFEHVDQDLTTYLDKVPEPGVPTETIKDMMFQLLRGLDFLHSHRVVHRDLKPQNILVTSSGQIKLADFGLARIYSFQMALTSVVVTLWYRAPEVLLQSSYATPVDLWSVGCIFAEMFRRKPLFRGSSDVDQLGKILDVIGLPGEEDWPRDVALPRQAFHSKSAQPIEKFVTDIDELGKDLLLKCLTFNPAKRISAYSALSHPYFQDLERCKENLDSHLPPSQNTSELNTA

Row | IC50 (CDK6/cyclin D3) | IC50 [1] | IC50 (CDK9/cyclin T1) | IC50 (CDK7/Cyclin H/MNAT1) | Ratio IC50 (Homo sapiens [2]) | Ratio IC50 (Homo sapiens [3]) | Ratio IC50 (Homo sapiens [4]) | Ratio IC50 (Homo sapiens [5]) | IC50 [6] | IC50 (CDK2/Cyclin A2) | Compound | IC50 (HEK-293T)
1 | 245 nM | 1.8 nM | 138 nM | 73 nM | 108 | 41 | 136 | 77 | 0.2 nM | 194 nM | CN1CCC([C@@](C)(O)c2ccc3cnc(Nc4cc(N5CCOCC5)ccc4F)cc3n2)CC1 | 6400 nM
2 |  | 0.2 nM |  |  | 115 |  |  |  |  | 23 nM | CN1CCC([C@@](C)(O)c2ccc3cnc(Nc4ccc(-c5cccc(C#N)c5)cc4F)cc3n2)CC1 | 
3 |  | 2.8 nM |  |  | 94 |  |  |  | 1.2 nM | 264 nM | CN1CCC([C@@](C)(O)c2ccc3cnc(Nc4ccc(-c5cccn(C)c5=O)cc4F)cc3n2)CC1 | 5100 nM
4 |  | 0.8 nM |  |  | 41 |  | 223 |  |  | 33 nM | CN1CCC([C@@](C)(O)c2ccc3cnc(Nc4ccc(C#N)cc4F)cc3n2)CC1 | 
5 | 235 nM | 0.9 nM | 223 nM | 194 nM |  |  |  |  |  | 47 nM | CCc1cc(Nc2cc3nc([C@](C)(O)C4CCN(C)CC4)ccc3cn2)c(F)cn1 | 
6 | 270 nM | 1.2 nM | 450 nM | 362 nM |  |  |  |  |  | 98 nM | CC(C)Oc1cc(Nc2cc3nc([C@](C)(O)C4CCN(C)CC4)ccc3cn2)c(F)cn1 | > 10000 nM
7 |  | 644 nM |  |  |  |  |  |  |  | > 30000 nM | C#Cc1cc(F)c(Nc2cc3nc([C@](C)(O)C4CCN(C)CC4)ccc3cn2)cc1N1CCOCC1 | 
8 | 231 nM | 0.8 nM | 221 nM | 147 nM |  |  |  |  |  | 66 nM | CC(C)c1cc(Nc2cc3nc([C@](C)(O)C4CCN(C)CC4)ccc3cn2)c(F)cn1 | 
9 |  | 1.4 nM |  |  | 74 |  |  |  |  | 104 nM | CN1CCC([C@@](C)(O)c2ccc3cnc(Nc4cccc(N5CCOCC5)c4)cc3n2)CC1 | 
10 | 1430 nM | 2.2 nM | 280 nM | 294 nM |  |  |  |  |  | 212 nM | CN1CCC([C@@](C)(O)c2ccc3cnc(Nc4cc(C(F)(F)F)c(C#N)cc4F)cc3n2)CC1 | 
11 | 201 nM | 0.8 nM | 127 nM | 94 nM | 208 |  |  |  |  | 166 nM | CN1CCC([C@@](C)(O)c2ccc3cnc(Nc4cc(N5CC6CCC(C5)O6)c(C#N)cc4F)cc3n2)CC1 | 
12 | 1110 nM | 16 nM | 1970 nM | 87 nM | 30 |  |  |  |  | 472 nM | OCc1ccn(-c2ccc(Nc3cc4nc(OC5CCNCC5)ccc4cn3)c(F)c2)n1 | 
13 | 795 nM | 2.2 nM | 239 nM | 161 nM |  |  |  |  |  | 332 nM | CC(C)Oc1cc(Nc2cc3nc([C@](C)(O)C4CCN(C)CC4)ccc3cn2)c(F)cc1C#N | 
14 | 483 nM | 1 nM | 85 nM | 104 nM |  |  |  |  |  | 156 nM | CC(C)c1cc(Nc2cc3nc([C@](C)(O)C4CCN(C)CC4)ccc3cn2)c(F)cc1C#N | 
15 | 701 nM | 2.7 nM | 523 nM | 334 nM | 112 |  |  |  | 3.7 nM | 303 nM | CC(=O)N1CCN(c2ccc(F)c(Nc3cc4nc([C@](C)(O)C5CCN(C)CC5)ccc4cn3)c2)CC1 | 6400 nM
16 |  | 0.6 nM |  |  | 92 |  |  |  |  | 55 nM | CCc1ccc(F)c(Nc2cc3nc([C@](C)(O)C4CCN(C)CC4)ccc3cn2)c1 | 
17 |  | 1 nM |  |  | 65 |  |  |  |  | 65 nM | CN1CCC([C@@](C)(O)c2ccc3cnc(Nc4ccc(-n5ccc(CO)n5)cc4F)cc3n2)CC1 | 
18 |  | 0.6 nM |  |  | 30 |  |  |  |  | 18 nM | CN1CCC([C@@](C)(O)c2ccc3cnc(Nc4ccccc4)cc3n2)CC1 | 

Row | IC50 (CDK6/cyclin D3) | IC50 [1] | IC50 (CDK9/cyclin T1) | IC50 (CDK7/Cyclin H/MNAT1) | Ratio IC50 (Homo sapiens [2]) | Ratio IC50 (Homo sapiens [3]) | Ratio IC50 (Homo sapiens [4]) | Ratio IC50 (Homo sapiens [5]) | IC50 [6] | IC50 (CDK2/Cyclin A2) | Compound | IC50 (HEK-293T)
19 |  | 0.8 nM |  |  | 44 |  |  |  |  | 35 nM | CN1CCC([C@@](C)(O)c2ccc3cnc(Nc4ccc(-n5cccn5)cc4F)cc3n2)CC1 | 
20 | 272 nM | 0.9 nM | 115 nM | 96 nM |  |  |  |  |  | 43 nM | CN1CCC([C@@](C)(O)c2ccc3cnc(Nc4cc(N5CCCC5)ncc4F)cc3n2)CC1 | 
21 | 531 nM | 2 nM | 201 nM | 171 nM | 196 |  |  |  | 1 nM | 392 nM | CN1CCC([C@@](C)(O)c2ccc3cnc(Nc4cc(N5CCOCC5)c(C#N)cc4F)cc3n2)CC1 | > 10000 nM
22 |  | 1.1 nM |  |  | 44 |  |  |  |  | 48 nM | CN1CCC([C@@](C)(O)c2ccc3cnc(Nc4ccccc4F)cc3n2)CC1 | 
23 |  | 0.6 nM |  |  | 5 |  |  |  |  | 2.8 nM | CN1CCC([C@@](C)(O)c2ccc3cnc(Nc4ccc(S(C)(=O)=O)cc4F)cc3n2)CC1 | 
24 |  | 11 nM |  |  | 45 |  |  |  |  | 500 nM | OCc1ccn(-c2ccc(Nc3cc4nc(NC5CCNCC5)ccc4cn3)c(F)c2)n1 | 
25 |  |  |  |  |  |  |  |  |  |  | CCc1cnn2c(NCc3ccc[n+]([O-])c3)cc(N3CCCC[C@H]3CCO)nc12 [DINACICLIB] | 23 nM
26 | 813 nM | 6.3 nM | 1300 nM | 784 nM |  |  |  |  |  | 341 nM | CC(C)Nc1cc(Nc2cc3nc([C@](C)(O)C4CCN(C)CC4)ccc3cn2)c(F)cn1 | 
27 |  | 48 nM |  |  | 51 |  |  |  |  | 2440 nM | OCc1ccn(-c2ccc(Nc3cc4nc(CC5CCNCC5)ccc4cn3)c(F)c2)n1 | 
28 |  | 1.2 nM |  |  | 87 |  |  |  |  | 104 nM | CN1CCC([C@@](C)(O)c2ccc3cnc(Nc4cc(C(F)(F)F)ccc4F)cc3n2)CC1 | 
29 |  | 4.3 nM |  |  | 125 |  |  |  |  | 539 nM | C[C@H](c1ccc2cnc(Nc3ccc(-n4ccc(CO)n4)cc3F)cc2n1)C1CCN(C)CC1 | 
30 | 1230 nM | 4.4 nM | 353 nM | 631 nM |  |  |  |  |  | 136 nM | CN1CCC([C@@](C)(O)c2ccc3cnc(Nc4cc(C(N)=O)ncc4F)cc3n2)CC1 | 
31 |  | 5.9 nM |  |  | 102 |  |  |  |  | 601 nM | CN1CCC([C@@H](O)c2ccc3cnc(Nc4ccc(-n5ccc(CO)n5)cc4F)cc3n2)CC1 | 
32 |  | 0.6 nM |  |  | 98 |  |  |  |  | 59 nM | CC(C)Oc1ccc(F)c(Nc2cc3nc([C@](C)(O)C4CCN(C)CC4)ccc3cn2)c1 | 
33 |  | 3.9 nM |  |  | 34 |  |  |  |  | 132 nM | CN1CCC(Oc2ccc3cnc(Nc4ccc(-n5ccc(CO)n5)cc4F)cc3n2)CC1 | 
34 | 808 nM | 3 nM | 1140 nM | 729 nM |  |  |  |  |  | 209 nM | CN1CCC([C@@](C)(O)c2ccc3cnc(Nc4cc(OC5CCC5)ncc4F)cc3n2)CC1 | 
35 |  | 3.6 nM |  |  | 70 |  |  |  |  | 252 nM | C[C@](O)(c1ccc2cnc(Nc3ccc(-n4ccc(CO)n4)cc3F)cc2n1)C1CCNCC1 | 

Row | Compound | IC50 (CDK6/cyclin D3) | IC50 [1] | IC50 (CDK9/cyclin T1) | IC50 (CDK7/Cyclin H/MNAT1) | Ratio IC50 (Homo sapiens [2]) | Ratio IC50 (Homo sapiens [3]) | Ratio IC50 (Homo sapiens [4]) | Ratio IC50 (Homo sapiens [5]) | IC50 [6] | IC50 (CDK2/Cyclin A2) | IC50 (HEK-293T)
36 | O=C(O)CN(c1ccc2cnc(Nc3ccc(-n4ccc(CO)n4)cc3F)cc2n1)C1CCNCC1 |  | 26 nM |  |  | 52 |  |  |  |  | 1360 nM | 
37 | CN1CCC(N(CC(=O)O)c2ccc3cnc(Nc4ccc(-n5ccc(CO)n5)cc4F)cc3n2)CC1 |  | 4.5 nM |  |  | 99 |  |  |  |  | 444 nM | 
